Data on 1 molecule can be found in BindingDB's records for patent USRE49517 (Janssen Pharmaceuticals, 2023).

The target of the series is Potassium voltage-gated channel subfamily H member 2 (Homo sapiens, UniProt Q12809). Description: Inhibition of Specific Binding to the hERG Receptor (HERGBD). As to the method:
Binding was terminated by filtration of the incubated membrane preparations using Filtermat B (Pharmacia, Uppsala Sweden) and a Micro Cell Harvester (Skatron, Lier, Norway). The Filtermat B had been presoaked with 1% polyethylen imine and carefully washed with 0.05 M Tris/HCl-buffer pH=7.7 after the filtration to separate free and bound radioactivity. […] The optimal amount of membrane preparation in the assay was determined and optimized for each membrane preparation separately in front of using the membranes in compound testing. […] For pipetting of the incubation mixture we routinely use the robot Biomek2000 (Fa. Beckman).

Potassium voltage-gated channel subfamily H member 2, sequence (Q12809 whole entry): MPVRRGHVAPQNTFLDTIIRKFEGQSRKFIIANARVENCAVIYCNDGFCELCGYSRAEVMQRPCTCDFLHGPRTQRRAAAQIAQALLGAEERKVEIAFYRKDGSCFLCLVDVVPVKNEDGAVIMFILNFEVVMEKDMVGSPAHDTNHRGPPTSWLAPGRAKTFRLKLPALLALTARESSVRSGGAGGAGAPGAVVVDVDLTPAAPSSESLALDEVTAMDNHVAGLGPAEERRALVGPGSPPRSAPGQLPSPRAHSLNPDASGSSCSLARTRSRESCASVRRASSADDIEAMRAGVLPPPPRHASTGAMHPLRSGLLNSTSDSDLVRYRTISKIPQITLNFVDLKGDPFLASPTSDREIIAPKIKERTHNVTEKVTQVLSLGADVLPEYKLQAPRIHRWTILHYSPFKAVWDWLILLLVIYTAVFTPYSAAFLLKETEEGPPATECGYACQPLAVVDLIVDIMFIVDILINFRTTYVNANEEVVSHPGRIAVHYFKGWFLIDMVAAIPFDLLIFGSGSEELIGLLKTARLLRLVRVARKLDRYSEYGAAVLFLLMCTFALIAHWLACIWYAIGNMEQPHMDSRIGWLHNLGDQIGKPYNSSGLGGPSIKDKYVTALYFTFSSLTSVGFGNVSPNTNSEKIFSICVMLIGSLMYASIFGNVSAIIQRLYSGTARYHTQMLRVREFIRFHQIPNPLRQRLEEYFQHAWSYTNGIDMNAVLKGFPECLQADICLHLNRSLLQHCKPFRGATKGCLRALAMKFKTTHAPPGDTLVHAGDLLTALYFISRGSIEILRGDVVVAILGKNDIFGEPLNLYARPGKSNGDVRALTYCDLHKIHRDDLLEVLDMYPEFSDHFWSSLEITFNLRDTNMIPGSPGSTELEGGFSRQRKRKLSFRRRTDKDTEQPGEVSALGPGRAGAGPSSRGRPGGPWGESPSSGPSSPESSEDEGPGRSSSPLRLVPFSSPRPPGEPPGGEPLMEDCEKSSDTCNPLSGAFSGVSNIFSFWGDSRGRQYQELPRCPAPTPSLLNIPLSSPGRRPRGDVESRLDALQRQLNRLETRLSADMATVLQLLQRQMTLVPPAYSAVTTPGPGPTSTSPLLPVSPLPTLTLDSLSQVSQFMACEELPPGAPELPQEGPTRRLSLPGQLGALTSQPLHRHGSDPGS

Consider `COc1cc(Cl)ccc1-c1cnn(Cc2ccn(C)n2)c1` [USRE49517, Example 67], for which the IC50 was determined as 63.3 µM.
